# Laboratory results taken from patent US12544356B2, “Combination of a chromene compound and a second active agent” (EUCLISES PHARMACEUTICALS, INC., priority 2016, dated 2026).
# Key:
# [1] = test system: HT-29 xenograft murine colon carcinoma model; assay: HT-29 xenograft tumor growth, Compound A01 with erlotinib (Example 1); type: in vivo, CB17SCID male mice
# Description: HT-29 cells were cultured in medium for one week. Following digestion cells were centrifuged for 3-5 minutes at 800-1500 rpm. Cells were washed with PBS and centrifuged again under the same condition. Cells were then suspended in PBS to a final concentration of […]. 200 μL of the HT-29 cell suspension were subcutaneously injected into the mice left forelimb axillary (2.5×10^6 HT-29 cells per mouse).
# (§1) 48 CB17SCID male mice were implanted with 2.5×10^6 HT29 cells. Growth of the tumor was calculated for each animal using a caliper and the equation: V=π×ab^2/6.
# (§2) Mouse weight and tumor volume measurements were taken on days 0, 3, 6, 9, 12, 15, 18, 21, and 22 following randomization.
# [2] = test system: HT-29 xenograft colon carcinoma model; assay: HT-29 xenograft tumor volume, Compound A01 vs celecoxib (Example 5); type: in vivo, CB17SCID mice
# Description: HT-29 cells were prepared and implanted by standard methods using the same procedure as Example 1.
# 42 CB17SCID mice were implanted with 2.5×10^6 HT-29 cells.
# Mouse weight and tumor volume measurements were taken on days 0, 3, 6, 9, 12, 15, 18, 21, and 22 following randomization. After 22 days dosing, the blood from each animal was collected at 2 hours and 6 hours post dose.
# [3] = test system: intratumoral immune cells (CT26 tumors); assay: Intratumoral immune response by flow cytometry (Example 4); type: in vivo, Female Envigo BALB/c (BALB/cAnNHsd) mice
# Description: CT26 murine colon carcinoma cells were prepared as in Example 2. Female Envigo BALB/c (BALB/cAnNHsd) were inoculated with 5×10^5 CT26 cells suspended in PBS (200 μL) subcutaneously high in the axilla (just under the fore limb). […] The antibodies were administered via i.p. injection on days 3, 6, 9, 12, and 16 following inoculation. Compound A01 was given per oral daily. The mice were euthanized two hours following final dose on Day 16 and samples were prepared for testing.
# Following euthanization, tumors were removed and processed to recover live cells. Red blood cells were removed. The cells were stained for surface markers and, where applicable, permeabilized for intracellular staining. The cells were washed and suspended in flow cytometry staining buffer and analyzed via flow cytometry.
# The treatment had minimal effect on the relative number of Tregs (CD25^+Foxp3^+) and MDSCs (CD11b^+Ly6G^+) (as a percentage of total CD45^+ cells). […] FIG. 3 correlates CD8^+ cell percentages to tumor regression.
# prostaglandin E2 (PGE2) = assay: CT26 tumoral PGE-2 (Example 6); type: in vivo, Female Harlan Balb/c mice (BALB/cAnNHsd)
# Description: CT26 murine colon carcinoma cells were prepared as in Example 2. Female Harlan Balb/c mice (BALB/cAnNHsd) were inoculated with 5×10^5 CT26 cells suspended in PBS (200 μL) subcutaneously high in the axilla (just under the fore limb). All mice were sorted into study groups based on caliper measurement estimation of tumor burden on Day 8 when the mean tumor burden for all animals was approximately 79 mm^3 (range of group means, 75-83 mm^3).
# [4] = test system: immune cell infiltration into the tumors (CT26); assay: Immune response to CT26 tumors: tumor-infiltrating and splenic immune cells (Example 3); type: in vivo, Female BALB/c mice; settings: Day 16; compared to vehicle treated mice
# Description: Female BALB/c mice were inoculated with 10^5 CT26 colorectal cancer cells as in Example 2. […] Anti-PD1 antibody was administered i.p. (200 μg/mouse) at days 9 and 14 post inoculation. Tumors were analyzed at day 16 (7 days after first anti-PD1 administration).
# [5] = Body weight in HT-29 xenograft study (Example 1); type: in vivo, CB17SCID male mice
# Description: as §1, §2
# [6] = of total CD8+CD4− T cells, Day 16, doses 10 mg/kg
# [7] = percentage of total CD45+ cells, Day 16, doses 10 mg/kg
structure (smiles),measurement,setting,value
"[2H]C([2H])([2H])c1cc(Br)cc2c1O[C@H](C(F)(F)F)C(C(=O)O)=C2 [Compound A01, (S)-6-bromo-8-trideuteromethyl-2-(trifluoromethyl)-2H-chromene-3-carboxylic acid]",suppression of tumor growth compared to vehicle,[1]; 10 mg/kg Compound A01 alone,51%
same,Tumor Volume,"[1]; Day 0, A01 1 mg/kg oral daily",71.8 mm^3
same,Tumor Volume,"[1]; Day 0, A01 10 mg/kg oral daily",70.1 mm^3
same,Tumor Volume,"[1]; Day 3, A01 1 mg/kg oral daily",143.8 mm^3
same,Tumor Volume,"[1]; Day 3, A01 10 mg/kg oral daily",145.2 mm^3
same,Tumor Volume,"[1]; Day 6, A01 1 mg/kg oral daily",194.2 mm^3
same,Tumor Volume,"[1]; Day 6, A01 10 mg/kg oral daily",186.9 mm^3
same,Tumor Volume,"[1]; Day 9, A01 1 mg/kg oral daily",301.1 mm^3
same,Tumor Volume,"[1]; Day 9, A01 10 mg/kg oral daily",235.1 mm^3
same,Tumor Volume,"[1]; Day 12, A01 1 mg/kg oral daily",344.8 mm^3
same,Tumor Volume,"[1]; Day 12, A01 10 mg/kg oral daily",292.1 mm^3
same,Tumor Volume,"[1]; Day 15, A01 1 mg/kg oral daily",459.4 mm^3
same,Tumor Volume,"[1]; Day 15, A01 10 mg/kg oral daily",309.7 mm^3
same,Tumor Volume,"[1]; Day 18, A01 1 mg/kg oral daily",820.6 mm^3
same,Tumor Volume,"[1]; Day 18, A01 10 mg/kg oral daily",497.5 mm^3
same,Tumor Volume,"[1]; Day 21, A01 1 mg/kg oral daily",899.0 mm^3
same,Tumor Volume,"[1]; Day 21, A01 10 mg/kg oral daily",592.1 mm^3
same,Tumor Volume,"[1]; Day 22, A01 1 mg/kg oral daily",921.1 mm^3
same,Tumor Volume,"[1]; Day 22, A01 10 mg/kg oral daily",612.1 mm^3
same,"slowing of tumor growth, comparison of therapies","[1]; HT-29 xenograft, compared to vehicle and to each therapy alone",superior to 50 mg/kg erlotinib
same,Tumor Volume,"[2]; Day 0, 0.1 mg/kg oral daily",65.8 mm^3
same,Tumor Volume,"[2]; Day 0, 0.3 mg/kg oral daily",70.9 mm^3
same,Tumor Volume,"[2]; Day 0, 1 mg/kg oral daily",68.5 mm^3
same,Tumor Volume,"[2]; Day 0, 3 mg/kg oral daily",68.4 mm^3
same,Tumor Volume,"[2]; Day 0, 10 mg/kg oral daily",69.0 mm^3
same,Tumor Volume,"[2]; Day 3, 0.1 mg/kg oral daily",88.5 mm^3
same,Tumor Volume,"[2]; Day 3, 0.3 mg/kg oral daily",83.8 mm^3
same,Tumor Volume,"[2]; Day 3, 1 mg/kg oral daily",85.2 mm^3
same,Tumor Volume,"[2]; Day 3, 3 mg/kg oral daily",80.3 mm^3
same,Tumor Volume,"[2]; Day 3, 10 mg/kg oral daily",83.9 mm^3
same,Tumor Volume,"[2]; Day 6, 0.1 mg/kg oral daily",165.0 mm^3
same,Tumor Volume,"[2]; Day 6, 0.3 mg/kg oral daily",132.9 mm^3
same,Tumor Volume,"[2]; Day 6, 1 mg/kg oral daily",152.8 mm^3
same,Tumor Volume,"[2]; Day 6, 3 mg/kg oral daily",121.9 mm^3
same,Tumor Volume,"[2]; Day 6, 10 mg/kg oral daily",107.7 mm^3
same,Tumor Volume,"[2]; Day 9, 0.1 mg/kg oral daily",283.1 mm^3
same,Tumor Volume,"[2]; Day 9, 0.3 mg/kg oral daily",231.5 mm^3
same,Tumor Volume,"[2]; Day 9, 1 mg/kg oral daily",239.8 mm^3
same,Tumor Volume,"[2]; Day 9, 3 mg/kg oral daily",190.1 mm^3
same,Tumor Volume,"[2]; Day 9, 10 mg/kg oral daily",176.0 mm^3
same,Tumor Volume,"[2]; Day 12, 0.1 mg/kg oral daily",360.3 mm^3
same,Tumor Volume,"[2]; Day 12, 0.3 mg/kg oral daily",298.2 mm^3
same,Tumor Volume,"[2]; Day 12, 1 mg/kg oral daily",311.1 mm^3
same,Tumor Volume,"[2]; Day 12, 3 mg/kg oral daily",279.5 mm^3
same,Tumor Volume,"[2]; Day 12, 10 mg/kg oral daily",257.7 mm^3
same,Tumor Volume,"[2]; Day 15, 0.1 mg/kg oral daily",416.8 mm^3
same,Tumor Volume,"[2]; Day 15, 0.3 mg/kg oral daily",350.7 mm^3
same,Tumor Volume,"[2]; Day 15, 1 mg/kg oral daily",364.8 mm^3
same,Tumor Volume,"[2]; Day 15, 3 mg/kg oral daily",329.1 mm^3
same,Tumor Volume,"[2]; Day 15, 10 mg/kg oral daily",332.0 mm^3
same,Tumor Volume,"[2]; Day 18, 0.1 mg/kg oral daily",640.9 mm^3
same,Tumor Volume,"[2]; Day 18, 0.3 mg/kg oral daily",530.8 mm^3
same,Tumor Volume,"[2]; Day 18, 1 mg/kg oral daily",532.6 mm^3
same,Tumor Volume,"[2]; Day 18, 3 mg/kg oral daily",445.1 mm^3
same,Tumor Volume,"[2]; Day 18, 10 mg/kg oral daily",357.3 mm^3
same,Tumor Volume,"[2]; Day 21, 0.1 mg/kg oral daily",900.4 mm^3
same,Tumor Volume,"[2]; Day 21, 0.3 mg/kg oral daily",723.5 mm^3
same,Tumor Volume,"[2]; Day 21, 1 mg/kg oral daily",730.9 mm^3
same,Tumor Volume,"[2]; Day 21, 3 mg/kg oral daily",622.8 mm^3
same,Tumor Volume,"[2]; Day 21, 10 mg/kg oral daily",453.6 mm^3
same,Tumor Volume,"[2]; Day 22, 0.1 mg/kg oral daily",987.7 mm^3
same,Tumor Volume,"[2]; Day 22, 0.3 mg/kg oral daily",753.5 mm^3
same,Tumor Volume,"[2]; Day 22, 1 mg/kg oral daily",772.1 mm^3
same,Tumor Volume,"[2]; Day 22, 3 mg/kg oral daily",699.4 mm^3
same,Tumor Volume,"[2]; Day 22, 10 mg/kg oral daily",561.8 mm^3
same,Ki67+ CD8+ T cells,[3]; [6],13.75%
same,PD-1+ CD8+ T cells,[3]; [6],84.36%
same,CD4+ CD8− intratumoral T cells,[3]; [7],1.01%
same,CD8+ CD4− intratumoral T cells,[3]; [7],6.32%
same,MDSCs (CD11b+Ly6G+),[3]; [7],12.09%
same,Tregs (CD25+Foxp3+),[3]; [7],2.29%
same,"level of Ki67+CD8+ T cells (of total CD8+CD4− T cells), in words",[3]; summary of Table 12,reduced
same,"level of PD-1+CD8+ T cells (of total CD8+CD4− T cells), in words",[3]; summary of Table 12,reduced
same,"percentage of intratumoral CD4+CD8− T cells (of total CD45+ cells), in words",[3]; summary of Table 12,increased
same,"percentage of intratumoral CD8+CD4− T cells (of total CD45+ cells), in words",[3]; summary of Table 12,increased
same,Mean PGE-2 Concentration (CT26 tumoral),prostaglandin E2 (PGE2); 0.3 mg/kg (Group 6),670 ng/g
same,Mean PGE-2 Concentration (CT26 tumoral),prostaglandin E2 (PGE2); 1 mg/kg (Group 5),278 ng/g
same,Mean PGE-2 Concentration (CT26 tumoral),prostaglandin E2 (PGE2); 30 mg/kg (Group 2),150 ng/g
same,"CD45+ (leukocyte), CD3+, CD8+, CD8+IFNγ+, CD4+IFNγ+, CD8+TNFα+ and CD4+TNFα+ cell infiltration into the tumors",[4],increase
same,Body weight,"[5]; Day 0, A01 1 mg/kg oral daily",23.4 g
same,Body weight,"[5]; Day 0, A01 10 mg/kg oral daily",23.5 g
same,Body weight,"[5]; Day 3, A01 1 mg/kg oral daily",22.4 g
same,Body weight,"[5]; Day 6, A01 1 mg/kg oral daily",21.6 g
same,Body weight,"[5]; Day 6, A01 10 mg/kg oral daily",22.0 g
same,Body weight,"[5]; Day 15, A01 1 mg/kg oral daily",20.0 g
same,Body weight,"[5]; Day 18, A01 1 mg/kg oral daily",19.9 g
same,Body weight,"[5]; Day 21, A01 1 mg/kg oral daily",19.9 g
same,Body weight,"[5]; Day 22, A01 1 mg/kg oral daily",20.0 g
